{"source": "ChEMBL document CHEMBL5543105", "about": "“Total synthesis and structural modification of the dibenzylbutane lignan LCA as a potent anti-inflammatory agent against LPS-induced acute lung injury” (Eur J Med Chem, 2024)", "key": {"[1]": {"test_system": "Mus musculus", "experiment": "Anti-inflammatory activity against LPS-induced acute […] injury C57BL/6 mouse model assessed as improvement in alveolar wall thickness at 20 mg/kg, ip administered for 1 hr and measured after 6 hrs by H and E staining based analysis", "format": "functional, organism-based", "settings": "time 7.0 hrs"}, "[2]": {"test_system": "Mus musculus", "experiment": "Anti-inflammatory activity against LPS-induced acute […] injury C57BL/6 mouse model assessed as improvement in alveolar structure at 20 mg/kg, ip administered for 1 hr and measured after 6 hrs by H and E staining based analysis", "format": "functional, organism-based", "settings": "time 7.0 hrs"}, "[3]": {"test_system": "RAW264.7", "experiment": "Anti-inflammatory activity against mouse RAW264.7 cells assessed as inhibition of LPS-induced TNF-alpha mRNA expression pretreated with compound for 1 hr followed by LPS-induction and measured after 24 hrs by RT-qPCR analysis", "format": "functional, cell-based", "settings": "dose 10-20 µM, time 25.0 hrs"}, "[4]": {"test_system": "RAW264.7", "experiment": "Anti-inflammatory activity against mouse RAW264.7 cells assessed as reduction in LPS-induced IL-6 level pretreated with compound for 1 hr followed by LPS-induction and measured after 24 hrs by ELISA analysis", "format": "functional, cell-based", "settings": "dose 1.25-20 µM, time 25.0 hrs"}, "[5]": {"test_system": "Mus musculus", "experiment": "Anti-inflammatory activity against LPS-induced acute […] injury C57BL/6 mouse model assessed as improvement in destruction of lung structure at 20 mg/kg, ip administered for 1 hr and measured after 6 hrs by H and E staining based analysis", "format": "functional, organism-based", "settings": "time 7.0 hrs"}, "[6]": {"test_system": "Mus musculus", "experiment": "Anti-inflammatory activity against LPS-induced acute […] injury C57BL/6 mouse model assessed as reduction in inflammatory cell infiltration at 20 mg/kg, ip administered for 1 hr and measured after 6 hrs by H and E staining based analysis", "format": "functional, organism-based", "settings": "time 7.0 hrs"}, "[7]": {"test_system": "RAW264.7", "experiment": "Anti-inflammatory activity against mouse RAW264.7 cells assessed as reduction in LPS-induced TNF-alpha level pretreated with compound for 1 hr followed by LPS-induction and measured after 24 hrs by ELISA analysis", "format": "functional, cell-based", "settings": "dose 1.25-20 µM, time 25.0 hrs"}, "[8]": {"test_system": "Mus musculus", "experiment": "Anti-inflammatory activity against LPS-induced acute […] injury C57BL/6 mouse model assessed as reduction in IL-1beta level in BALF at 20 mg/kg, ip administered for 1 hr and measured after 6 hrs by ELISA analysis", "format": "functional, organism-based", "settings": "time 7.0 hrs"}, "[9]": {"test_system": "Mus musculus", "experiment": "Anti-inflammatory activity against LPS-induced acute […] injury C57BL/6 mouse model assessed as decrease in IL-6 mRNA expression in lung at 20 mg/kg, ip administered for 1 hr and measured after 6 hrs by RT-qPCR analysis", "format": "functional, organism-based", "settings": "time 7.0 hrs"}, "[10]": {"test_system": "Mus musculus", "experiment": "Anti-inflammatory activity against LPS-induced acute […] injury C57BL/6 mouse model assessed as decrease in TNF-alpha mRNA expression in lung at 20 mg/kg, ip administered for 1 hr and measured after 6 hrs by RT-qPCR analysis", "format": "functional, organism-based", "settings": "time 7.0 hrs"}, "[11]": {"test_system": "RAW264.7", "experiment": "Anti-inflammatory activity against mouse RAW264.7 cells assessed as inhibition of LPS-induced IL-1beta mRNA expression pretreated with compound for 1 hr followed by LPS-induction and measured after 24 hrs by RT-qPCR analysis", "format": "functional, cell-based", "settings": "dose 10-20 µM, time 25.0 hrs"}, "[12]": {"test_system": "Mus musculus", "experiment": "Anti-inflammatory activity against LPS-induced acute […] injury C57BL/6 mouse model assessed as reduction in alveolar thickness in lung at 20 mg/kg, ip administered for 1 hr and measured after 6 hrs by H and E staining based analysis", "format": "functional, organism-based", "settings": "time 7.0 hrs"}, "[13]": {"test_system": "RAW264.7", "experiment": "Anti-inflammatory activity against mouse RAW264.7 cells assessed as inhibition of LPS-induced NO production at 20 uM incubated for 24 hrs", "format": "functional, cell-based"}, "[14]": {"test_system": "Mus musculus", "experiment": "Anti-inflammatory activity against LPS-induced acute […] injury C57BL/6 mouse model assessed as reduction in IL-6 level in serum at 20 mg/kg, ip administered for 1 hr and measured after 6 hrs by ELISA analysis", "format": "functional, organism-based", "settings": "time 7.0 hrs"}, "[15]": {"test_system": "Mus musculus", "experiment": "Anti-inflammatory activity against LPS-induced acute […] injury C57BL/6 mouse model assessed as improvement in pulmonary hemorrhage at 20 mg/kg, ip administered for 1 hr and measured after 6 hrs by H and E staining based analysis", "format": "functional, organism-based", "settings": "time 7.0 hrs"}, "[16]": {"test_system": "RAW264.7", "experiment": "Anti-inflammatory activity against mouse RAW264.7 cells assessed as inhibition of LPS-stimulated nitric oxide production at 2.5 to 20 uM incubated for 5 hrs by Griess reagent based microplate reader analysis", "format": "functional, cell-based", "settings": "dose 2.5-20 µM"}, "[17]": {"test_system": "Mus musculus", "experiment": "Anti-inflammatory activity against LPS-induced acute […] injury C57BL/6 mouse model assessed as reduction in bleeding points in lung at 20 mg/kg, ip administered for 1 hr and measured after 6 hrs by H and E staining based analysis", "format": "functional, organism-based", "settings": "time 7.0 hrs"}, "[18]": {"test_system": "RAW264.7", "experiment": "Anti-inflammatory activity against mouse RAW264.7 cells assessed as inhibition of LPS-induced IL-6 mRNA expression pretreated with compound for 1 hr followed by LPS-induction and measured after 24 hrs by RT-qPCR analysis", "format": "functional, cell-based", "settings": "dose 10-20 µM, time 25.0 hrs"}, "[19]": {"test_system": "Mus musculus", "experiment": "Anti-inflammatory activity against LPS-induced acute […] injury C57BL/6 mouse model assessed as reduction in wet weight to dry weight ratio in lung at 20 mg/kg, ip administered for 1 hr and measured after 6 hrs", "format": "functional, organism-based", "settings": "time 7.0 hrs"}, "[20]": {"test_system": "RAW264.7", "experiment": "Cytotoxicity against mouse RAW264.7 cells upto 20 uM incubated for 24 hrs by CCK-8 assay", "format": "toxicity, cell-based", "settings": "raw264.7, 24 h"}, "[21]": {"test_system": "Mus musculus", "experiment": "Anti-inflammatory activity against LPS-induced acute […] injury C57BL/6 mouse model assessed as reduction in IL-1beta level in serum at 20 mg/kg, ip administered for 1 hr and measured after 6 hrs by ELISA analysis", "format": "functional, organism-based", "settings": "time 7.0 hrs"}, "[22]": {"test_system": "Mus musculus", "experiment": "Anti-inflammatory activity against LPS-induced acute […] injury C57BL/6 mouse model assessed as reduction in IL-6 level in BALF at 20 mg/kg, ip administered for 1 hr and measured after 6 hrs by ELISA analysis", "format": "functional, organism-based", "settings": "time 7.0 hrs"}, "[23]": {"test_system": "RAW264.7", "experiment": "Anti-inflammatory activity against mouse RAW264.7 cells assessed as inhibition of LPS-induced p65 phosphorylation at 10 to 20 uM pretreated with compound for 1 hr followed by LPS-induction and measured after 4 hrs by Western blot analysis", "format": "functional, cell-based", "settings": "dose 10-20 µM, time 5.0 hrs"}, "[24]": {"test_system": "RAW264.7", "experiment": "Anti-inflammatory activity against mouse RAW264.7 cells assessed as reduction in NO level pretreated with compound for 1 hr followed by LPS-induction and measured after 24 hrs", "format": "functional, cell-based", "settings": "dose 1.25-20 µM, time 25.0 hrs"}, "[25]": {"test_system": "Mus musculus", "experiment": "Anti-inflammatory activity against LPS-induced acute […] injury C57BL/6 mouse model assessed as reduction in lung edema at 20 mg/kg, ip administered for 1 hr and measured after 6 hrs by H and E staining based analysis", "format": "functional, organism-based", "settings": "time 7.0 hrs"}, "[26]": {"test_system": "Mus musculus", "experiment": "Anti-inflammatory activity against LPS-induced acute […] injury C57BL/6 mouse model assessed as decrease in IL-1beta mRNA expression in lung at 20 mg/kg, ip administered for 1 hr and measured after 6 hrs by RT-qPCR analysis", "format": "functional, organism-based", "settings": "time 7.0 hrs"}, "[27]": {"test_system": "RAW264.7", "experiment": "Anti-inflammatory activity against mouse RAW264.7 cells assessed as inhibition of LPS-induced nuclear translocation at 10 to 20 uM pretreated with compound for 1 hr followed by LPS-induction and measured after 4 hrs by DAPI staining based fluorescence microscopic analysis", "format": "functional, cell-based", "settings": "dose 10-20 µM, time 5.0 hrs"}, "[28]": {"test_system": "Mus musculus", "experiment": "Anti-inflammatory activity against LPS-induced acute […] injury C57BL/6 mouse model assessed as reduction in TNF-alpha level in BALF at 20 mg/kg, ip administered for 1 hr and measured after 6 hrs by ELISA analysis", "format": "functional, organism-based", "settings": "time 7.0 hrs"}, "[29]": {"test_system": "Mus musculus", "experiment": "Anti-inflammatory activity against LPS-induced acute […] injury C57BL/6 mouse model assessed as improvement in lung edema at 20 mg/kg, ip administered for 1 hr and measured after 6 hrs by H and E staining based analysis", "format": "functional, organism-based", "settings": "time 7.0 hrs"}, "[30]": {"test_system": "RAW264.7", "experiment": "Anti-inflammatory activity against mouse RAW264.7 cells assessed as reduction in LPS-induced IkappaBalpha level at 10 to 20 uM pretreated with compound for 1 hr followed by LPS-induction and measured after 4 hrs by Western blot analysis", "format": "functional, cell-based", "settings": "dose 10-20 µM, time 5.0 hrs"}, "[31]": {"test_system": "Mus musculus", "experiment": "Anti-inflammatory activity against LPS-induced acute […] injury C57BL/6 mouse model assessed as reduction in TNF-alpha level in serum at 20 mg/kg, ip administered for 1 hr and measured after 6 hrs by ELISA analysis", "format": "functional, organism-based", "settings": "time 7.0 hrs"}, "[32]": {"test_system": "Mus musculus", "experiment": "Anti-inflammatory activity against LPS-induced acute […] injury C57BL/6 mouse model assessed as reduction in congestion in lung at 20 mg/kg, ip administered for 1 hr and measured after 6 hrs by H and E staining based analysis", "format": "functional, organism-based", "settings": "time 7.0 hrs"}, "[33]": {"test_system": "RAW264.7", "experiment": "Anti-inflammatory activity against mouse RAW264.7 cells assessed as reduction in LPS-induced IL-1beta level pretreated with compound for 1 hr followed by LPS-induction and measured after 24 hrs by ELISA analysis", "format": "functional, cell-based", "settings": "dose 1.25-20 µM, time 25.0 hrs"}}, "note": "The source made the active and inactive calls. No cut-off for these calls is given here."}
{"smiles": "COc1cc(C[C@H](C(=O)N2CCN(c3cccc(C)c3C)CC2)[C@@H](Cc2cc(OC)c(O)c(OC)c2)C(=O)N2CCN(c3cccc(C)c3C)CC2)cc(OC)c1O", "values": [{"measurement": "Activity", "setting": "[1]", "value": "Active"}, {"measurement": "Activity", "setting": "[2]", "value": "Active"}, {"measurement": "Activity", "setting": "[3]", "value": "Dose-Dependent Effect"}, {"measurement": "Activity", "setting": "[4]", "value": "Dose-Dependent Effect"}, {"measurement": "Activity", "setting": "[5]", "value": "Active"}, {"measurement": "Activity", "setting": "[6]", "value": "Active"}, {"measurement": "Activity", "setting": "[7]", "value": "Dose-Dependent Effect"}, {"measurement": "Activity", "setting": "[8]", "value": "Active"}, {"measurement": "Activity", "setting": "[9]", "value": "Active"}, {"measurement": "Activity", "setting": "[10]", "value": "Active"}, {"measurement": "Activity", "setting": "[11]", "value": "Dose-Dependent Effect"}, {"measurement": "Activity", "setting": "[12]", "value": "Active"}, {"measurement": "Activity", "setting": "[13]", "value": "Active"}, {"measurement": "Activity", "setting": "[14]", "value": "Active"}, {"measurement": "Activity", "setting": "[15]", "value": "Active"}, {"measurement": "Activity", "setting": "[16]", "value": "Active"}, {"measurement": "Activity", "setting": "[17]", "value": "Active"}, {"measurement": "Activity", "setting": "[18]", "value": "Dose-Dependent Effect"}, {"measurement": "Activity", "setting": "[19]", "value": "Active"}, {"measurement": "Activity", "setting": "[20]", "value": "Non-Toxic"}, {"measurement": "Activity", "setting": "[21]", "value": "Active"}, {"measurement": "Activity", "setting": "[22]", "value": "Active"}, {"measurement": "Activity", "setting": "[23]", "value": "Active"}, {"measurement": "Activity", "setting": "[24]", "value": "Dose-Dependent Effect"}, {"measurement": "Activity", "setting": "[25]", "value": "Active"}, {"measurement": "Activity", "setting": "[26]", "value": "Active"}, {"measurement": "Activity", "setting": "[27]", "value": "Active"}, {"measurement": "Activity", "setting": "[28]", "value": "Active"}, {"measurement": "Activity", "setting": "[29]", "value": "Active"}, {"measurement": "Activity", "setting": "[30]", "value": "Active"}, {"measurement": "Activity", "setting": "[31]", "value": "Active"}, {"measurement": "Activity", "setting": "[32]", "value": "Active"}, {"measurement": "Activity", "setting": "[33]", "value": "Dose-Dependent Effect"}]}
